Test results published in patent US20260109707A1, “HETEROBIFUNCTIONAL COMPOUNDS AND METHODS OF TREATING DISEASE” (Halda Therapeutics OpCo. Inc., priority 2022, published 2026).
Where two headings read alike, the source gives them in different places.

Assays:
[1] = system: T-Rex 293 cell line SC3 cells having increased expression of androgen receptor protein due to exposure to doxycycline; assay: Cellular growth inhibition assay, T-Rex 293 SC3 cells with doxycycline (CellTiter-Glo, 72 hours); format: cell-based; details: T-Rex 293 SC3 cells with increased androgen receptor expression due to doxycycline (10 ng/mL)
Method in brief: (§1)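 Doxycycline (10 ng/mL) was either included or omitted to toggle wild-type androgen receptor expression in SC3 cells, a T-Rex 293 clone, grown in stripped-serum, phenol red-free medium. After 72 hours with compound, viable cells were quantified by CellTiter-Glo 2.0.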

VCaP cells = assay: Cellular growth inhibition assay for VCaP cells (CellTiter-Glo, 72 hours); format: cell-based, human
Method in brief: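 Luminescent viability signal after 72 h of compound exposure gave GI50 values by four-parameter nonlinear regression. Compounds were added in 0.5% DMSO to cells plated 24 h earlier at 5000/well in DMEM containing 10% FBS.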

T47D cells = assay: Cellular growth inhibition assay for T47D cells (CellTiter-Glo, 72 hours); format: cell-based, human; details: 72 hours treatment
Method in brief: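 Luminescence from CellTiter-Glo 2.0 after 72 h of compound exposure gives the viability signal. Cells grew in insulin-supplemented (0.2 units/mL) DMEM with 10% FBS and were treated one day after seeding at 0.5% DMSO. GI50 values come from four-parameter nonlinear regression.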

[2] = system: T-Rex 293 cell line SC3 cells lacking increased expression of androgen receptor protein; assay: Cellular growth inhibition assay, T-Rex 293 SC3 cells without doxycycline (CellTiter-Glo, 72 hours); format: cell-based; details: T-Rex 293 cell line SC3 cells not exposed to doxycycline (lacking increased androgen receptor expression)
Method in brief: as §1

SMILES	GI50 [1]	GI50 (VCaP cells)	GI50 (T47D cells)	GI50 [2]	GI50 ([1]; 72 h)	GI50 (VCaP cells; Homo sapiens, VCaP, 72 h)	GI50 (T47D cells; Homo sapiens, T47D, 72 h)	GI50 ([2]; 72 h)
Cc1sc2c(c1C)C(c1ccc(N3CCN(C4CCN(c5ccc(C(=O)N[C@H]6CC[C@H](Oc7ccc(C#N)c(Cl)c7)CC6)nn5)CC4)C3=O)cc1)=NC(Cc1ncco1)c1nnc(C)n1-2 (stereo partly drawn) [I-414]	< 500 nM	< 500 nM	< 500 nM	< 500 nM				
Cc1sc2c(c1C)C(c1ccc(OC3CN(C4CCN(c5ccc(C(=O)N[C@H]6CC[C@H](Oc7ccc(C#N)c(Cl)c7)CC6)nn5)C4)C3)cc1)=N[C@@H](Cc1ncco1)c1nnc(C)n1-2 (stereo partly drawn) [I-101]					< 500 nM	< 500 nM	< 500 nM	< 500 nM
Cc1sc2c(c1C)C(c1ccc(-c3ccc(C4CCN(c5ccc(C(=O)NC6CCC(Oc7ccc(C#N)c(Cl)c7)CC6)nn5)CC4)cc3)cc1)=N[C@H](Cc1ncco1)c1nnc(C)n1-2 (stereo partly drawn) [I-370]					< 500 nM	> 3000 nM	500 to 1500 nM	> 3000 nM
Cc1sc2c(c1C)C(c1ccc(CCCC3CCCN(c4ccc(C(=O)N[C@H]5CC[C@H](OC6CCC(C#N)C(Cl)C6)CC5)nn4)CC3)cc1)=N[C@@H](Cc1ncco1)c1nnc(C)n1-2 (stereo partly drawn) [I-396]					< 500 nM	< 500 nM	< 500 nM	< 500 nM
Cc1sc2c(c1C)C(c1ccc(CCN3CCOC4(CCN(c5ccc(C(=O)N[C@H]6CC[C@H](Oc7ccc(C#N)c(Cl)c7)CC6)nn5)CC4)C3)cc1)=N[C@@H](Cc1ncco1)c1nnc(C)n1-2 [I-222]					< 500 nM	< 500 nM	< 500 nM	500 to 1500 nM
Cc1sc2c(c1C)C(c1ccc(CC[C@H]3CC[C@@]4(CCCN(c5ccc(C(=O)N[C@H]6CC[C@H](Oc7ccc(C#N)c(Cl)c7)CC6)nn5)C4)C3)cc1)=N[C@H](Cc1ncco1)c1nnc(C)n1-2 [I-215]					< 500 nM	< 500 nM	< 500 nM	< 500 nM
Cc1sc2c(c1C)C(c1ccc(CNC(=O)CNC(=O)c3ccc(C(=O)N[C@H]4CC[C@H](Oc5ccc(C#N)c(Cl)c5)CC4)nn3)cc1)=N[C@@H](Cc1ncco1)c1nnc(C)n1-2 [I-233]					< 500 nM	< 500 nM	500 to 1500 nM	> 3000 nM
Cc1sc2c(c1C)C(c1ccc(CC3CC4(CCN(c5ccc(C(=O)N[C@H]6CC[C@H](Oc7ccc(C#N)c(Cl)c7)CC6)nn5)CC4)C3)nc1)=N[C@@H](Cc1ncco1)c1nnc(C)n1-2 [I-347]					< 500 nM	< 500 nM	< 500 nM	< 500 nM
Cc1sc2c(c1C)C(c1ccc(CCNC(=O)NCc3ccc(C(=O)N[C@H]4CC[C@H](Oc5ccc(C#N)c(Cl)c5)CC4)nn3)cc1)=N[C@@H](Cc1ncco1)c1nnc(C)n1-2 [I-293]					< 500 nM	< 500 nM	500 to 1500 nM	> 3000 nM
Cc1sc2c(c1C)C(c1ccc(OC3CC4(CCN(c5ccc(C(=O)N[C@H]6CC[C@H](Oc7ccc(C#N)c(Cl)c7)CC6)nn5)CC4)C3)cc1)=N[C@@H](C)c1nnc(C)n1-2 [I-334]					< 500 nM	< 500 nM	< 500 nM	500 to 1500 nM
Cc1sc2c(c1C)C(c1ccc(CCC[C@@H]3CCCN(c4ccc(C(=O)N[C@H]5CC[C@H](Oc6ccc(C#N)c(Cl)c6)CC5)nn4)CC3)cc1)=N[C@@H](Cc1ncco1)c1nnc(C)n1-2 [I-411]					< 500 nM	< 500 nM	< 500 nM	< 500 nM
Cc1sc2c(c1C)C(c1ccc(N3CCC4(CCCN(c5ccc(C(=O)N[C@H]6CC[C@H](Oc7ccc(C#N)c(Cl)c7)CC6)nn5)C4)CC3)cc1)=NC1(CC1)c1nnc(C)n1-2 [I-398]					< 500 nM	1500 to 3000 nM	> 3000 nM	> 3000 nM
Cc1sc2c(c1C)C(c1ccc(CNC(=O)N3CCC(c4ccc(C(=O)N[C@H]5CC[C@H](Oc6ccc(C#N)c(Cl)c6)CC5)nn4)CC3)cc1)=N[C@@H](Cc1ncco1)c1nnc(C)n1-2 [I-228]					< 500 nM	< 500 nM	< 500 nM	> 3000 nM
Cc1sc2c(c1C)C(c1ccc(CCC3CCC4CN(c5ccc(C(=O)N[C@H]6CC[C@H](Oc7ccc(C#N)c(Cl)c7)CC6)nn5)CCN4C3)cc1)=NC(Cc1ncco1)c1nnc(C)n1-2 (stereo partly drawn) [I-401]	> 3000 nM	> 3000 nM	> 3000 nM	> 3000 nM				
Cc1sc2c(c1C)C(c1ccc(CC[C@@H]3CCCN(c4ccc(C(=O)N[C@H]5CC[C@H](Oc6ccc(C#N)c(Cl)c6)CC5)nn4)C3)cc1)=N[C@@H](Cc1ncco1)c1nnc(C)n1-2 [I-255]					< 500 nM	< 500 nM	500 to 1500 nM	< 500 nM
Cc1sc2c(c1C)C(c1ccc(CN3CCO[C@@H](CNc4ccc(C(=O)N[C@H]5CC[C@H](Oc6ccc(C#N)c(Cl)c6)CC5)nn4)C3)cc1)=N[C@@H](Cc1ncco1)c1nnc(C)n1-2 [I-298]					< 500 nM	< 500 nM	< 500 nM	< 500 nM
Cc1sc2c(c1C)C(c1ccc(OC[C@H]3C[C@@]4(CCCN(c5ccc(C(=O)N[C@H]6CC[C@H](Oc7ccc(C#N)c(Cl)c7)CC6)nn5)C4)C3)cc1)=N[C@@H](C)c1nnc(C)n1-2 [I-310]					< 500 nM	< 500 nM	500 to 1500 nM	> 3000 nM
Cc1sc2c(c1C)C(c1ccc(N3CCC[C@H](C(=O)NCc4ccc(C(=O)N[C@H]5CC[C@H](Oc6ccc(C#N)c(Cl)c6)CC5)nn4)C3)cc1)=N[C@H](Cc1ncco1)c1nnc(C)n1-2 [I-295]					500 to 1500 nM	> 3000 nM	1500 to 3000 nM	> 3000 nM
CNc1ccc2c(n1)C(c1ccc(OC3CC4(CCCN(c5ccc(C(=O)N[C@H]6CC[C@H](Oc7ccc(C#N)c(Cl)c7)CC6)nn5)C4)C3)cc1)=NCc1onc(C)c1-2 (stereo partly drawn) [I-107]					< 500 nM	> 3000 nM	> 3000 nM	> 3000 nM
Cc1sc2c(c1C)C(c1ccc(C[C@@H]3CCCN(c4ccc(C(=O)N[C@H]5CC[C@H](Oc6ccc(C#N)c(Cl)c6)CC5)nn4)C3)cc1)=N[C@@H](Cc1ncco1)c1nnc(C)n1-2 [I-252]					< 500 nM	< 500 nM	< 500 nM	< 500 nM
Cc1sc2c(c1C)C(c1ccc(C(C)(C)CN3CC4(CCCN(c5ccc(C(=O)N[C@H]6CC[C@H](Oc7ccc(C#N)c(Cl)c7)CC6)nn5)C4)C3)cc1)=N[C@@H](Cc1ncco1)c1nnc(C)n1-2 [I-440]					< 500 nM	< 500 nM	500 to 1500 nM	500 to 1500 nM
Cc1sc2c(c1C)C(c1ccc(C#C[C@H]3C[C@@]4(CCCN(c5ccc(C(=O)N[C@H]6CC[C@H](Oc7ccc(C#N)c(Cl)c7)CC6)nn5)C4)C3)cc1)=N[C@@H](Cc1ncco1)c1nnc(C)n1-2 [I-235]					< 500 nM	< 500 nM	< 500 nM	< 500 nM
Cc1sc2c(c1C)C(c1ccc(OC3CC4(CCN(c5ccc(C(=O)N[C@H]6CC[C@H](Oc7ccc(C#N)c(Cl)c7)CC6)nn5)CC4)C3)cc1)=N[C@H](Cc1ncco1)c1nnc(C)n1-2 [I-80]					< 500 nM	< 500 nM	> 3000 nM	> 3000 nM
Cc1sc2c(c1C)C(c1ccc(OC[C@H]3C[C@@]4(CCCN(c5ccc(C(=O)N[C@H]6CC[C@H](Oc7ccc(C#N)c(Cl)c7)CC6)nn5)C4)C3)cn1)=N[C@@H](Cc1ncco1)c1nnc(C)n1-2 [I-340]					< 500 nM	< 500 nM	< 500 nM	< 500 nM
Cc1sc2c(c1C)C(c1ccc([C@H]3CCCCN3C(=O)[C@H]3CCCN(c4ccc(C(=O)N[C@H]5CC[C@H](Oc6ccc(C#N)c(Cl)c6)CC5)nn4)C3)cc1)=N[C@@H](Cc1ncco1)c1nnc(C)n1-2 [I-296]					< 500 nM	< 500 nM	500 to 1500 nM	> 3000 nM
Cc1sc2c(c1C)C(c1ccc(OC3CC4(CCN(c5ccc(C(=O)N[C@H]6CC[C@H](Oc7ccc(C#N)c(Cl)c7)CC6)nn5)CC4)C3)cc1)=N[C@@](C)(C(C)c1ncco1)c1nnc(C)n1-2 (stereo partly drawn) [I-226]					< 500 nM	> 3000 nM	500 to 1500 nM	> 3000 nM
Cc1sc2c(c1C)C(c1ccc(OC3CC4(C3)CC3(CCN(c5ccc(C(=O)N[C@H]6CC[C@H](Oc7ccc(C#N)c(Cl)c7)CC6)nn5)CC3)C4)nc1)=N[C@@H](C)c1nnc(C)n1-2 [I-436]					< 500 nM	< 500 nM	500 to 1500 nM	> 3000 nM
Cc1sc2c(c1C)C(c1ccc(N3CCC4(CCCN(c5ccc(C(=O)N[C@H]6CC[C@H](Oc7ccc(C#N)c(Cl)c7)CC6)nn5)C4)CC3)cc1)=N[C@@H](C)c1nnc(C)n1-2 [I-429]	< 500 nM	< 500 nM	> 3000 nM	> 3000 nM				
Cc1sc2c(c1C)C(c1ccc(C[C@H]3C[C@@]4(CN(c5ccc(C(=O)N[C@H]6CC[C@H](Oc7ccc(C#N)c(Cl)c7)CC6)nn5)CCO4)C3)cc1)=N[C@@H](Cc1ncco1)c1nnc(C)n1-2 [I-210]					> 3000 nM	> 3000 nM	500 to 1500 nM	> 3000 nM
Cc1sc2c(c1C)C(c1ccc(CCOC3CCN(c4ccc(C(=O)N[C@H]5CC[C@H](Oc6ccc(C#N)c(Cl)c6)CC5)nn4)CC3)cc1)=NC(Cc1ncco1)c1nnc(C)n1-2 (stereo partly drawn) [I-110]					< 500 nM	< 500 nM	< 500 nM	> 3000 nM
